From patent US7759331B2, “Pyridine-containing macroheterococylic compounds as kinase inhibitors” (Janssen Pharmaceutica NV, priority 2006, dated 2010)

Legend:
Test in all cases: Protein kinase selectivity panel
Details in all cases: 1.0 μM compound, 10 μM ATP
CaMKII(r) = assay type: biochemical, rat
Method: (§1) Protein kinase selectivity assays were performed as described in the scientific literature (Davies, S. P., et al., Biochem. J. 2000, 351, 95-105). Briefly, protein kinases were assayed for their ability to phosphorylate the appropriate peptide/protein substrates in the presence of 1.0 μM compound. Assays were done using 10 μM ATP and were linear with respect to time. The protein kinase selectivity assays were performed by Upstate Cell Signaling Solutions using Upstate's KinaseProfiler™ Selectivity Screening Service.

AMPK(r) = assay type: biochemical, rat
Method: as §1

CK1(y) = assay type: biochemical, yeast
Method: as §1

ALK(h) = ALK(h) (Homo sapiens, UniProt Q9UM73); assay type: biochemical
ALK(h), sequence (Q9UM73 19-1620): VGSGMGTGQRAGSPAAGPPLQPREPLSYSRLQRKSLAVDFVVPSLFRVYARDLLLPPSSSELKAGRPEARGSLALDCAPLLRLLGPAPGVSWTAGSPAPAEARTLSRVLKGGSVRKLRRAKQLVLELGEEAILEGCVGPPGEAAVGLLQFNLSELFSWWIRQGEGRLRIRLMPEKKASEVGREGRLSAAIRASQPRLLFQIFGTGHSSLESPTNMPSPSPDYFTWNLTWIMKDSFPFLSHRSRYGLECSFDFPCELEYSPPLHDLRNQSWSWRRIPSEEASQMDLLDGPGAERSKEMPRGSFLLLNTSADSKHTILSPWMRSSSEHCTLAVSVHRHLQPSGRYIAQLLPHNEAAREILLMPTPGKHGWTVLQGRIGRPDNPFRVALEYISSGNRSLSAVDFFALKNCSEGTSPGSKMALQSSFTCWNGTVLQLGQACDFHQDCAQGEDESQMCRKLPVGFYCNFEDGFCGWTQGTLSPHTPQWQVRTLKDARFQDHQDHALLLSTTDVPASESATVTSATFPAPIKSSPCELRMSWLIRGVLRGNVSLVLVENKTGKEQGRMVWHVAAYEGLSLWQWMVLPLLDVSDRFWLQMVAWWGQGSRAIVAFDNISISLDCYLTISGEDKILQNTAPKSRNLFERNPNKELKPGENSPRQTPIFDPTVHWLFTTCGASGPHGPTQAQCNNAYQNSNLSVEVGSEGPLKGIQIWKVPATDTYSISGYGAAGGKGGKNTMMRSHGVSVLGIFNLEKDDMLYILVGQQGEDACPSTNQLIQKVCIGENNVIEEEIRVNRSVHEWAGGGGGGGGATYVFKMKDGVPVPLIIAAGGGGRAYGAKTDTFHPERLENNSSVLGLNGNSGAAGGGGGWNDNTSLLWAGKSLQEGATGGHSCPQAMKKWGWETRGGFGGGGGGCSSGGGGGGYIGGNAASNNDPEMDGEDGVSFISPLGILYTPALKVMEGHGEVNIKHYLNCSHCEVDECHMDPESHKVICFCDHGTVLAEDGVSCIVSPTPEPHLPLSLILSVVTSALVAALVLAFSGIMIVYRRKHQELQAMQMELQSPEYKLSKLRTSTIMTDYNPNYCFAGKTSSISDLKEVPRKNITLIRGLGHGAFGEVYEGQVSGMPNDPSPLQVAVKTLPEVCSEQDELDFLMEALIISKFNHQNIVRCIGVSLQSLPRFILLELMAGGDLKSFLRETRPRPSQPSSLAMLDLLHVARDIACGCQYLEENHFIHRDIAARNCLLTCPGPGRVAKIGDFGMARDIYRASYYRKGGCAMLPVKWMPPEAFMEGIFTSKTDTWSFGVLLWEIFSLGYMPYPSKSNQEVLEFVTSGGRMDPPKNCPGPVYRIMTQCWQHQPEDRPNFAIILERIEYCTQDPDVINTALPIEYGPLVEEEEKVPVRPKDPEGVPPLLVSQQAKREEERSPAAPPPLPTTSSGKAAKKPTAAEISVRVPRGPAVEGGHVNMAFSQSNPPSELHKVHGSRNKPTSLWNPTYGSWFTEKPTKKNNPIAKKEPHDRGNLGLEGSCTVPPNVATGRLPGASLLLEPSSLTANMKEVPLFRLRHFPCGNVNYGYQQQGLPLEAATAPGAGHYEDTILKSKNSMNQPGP
Summary of the method: (§2)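 Read-out is phosphorylation of the kinase's appropriate peptide/protein substrate, with and without 1.0 μM test compound. Assays used 10 μM ATP.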

SAPK4(h) = target: T1, SAPK4(h) (Homo sapiens, UniProt O15264); assay type: biochemical
T1 sequence (O15264 1-365): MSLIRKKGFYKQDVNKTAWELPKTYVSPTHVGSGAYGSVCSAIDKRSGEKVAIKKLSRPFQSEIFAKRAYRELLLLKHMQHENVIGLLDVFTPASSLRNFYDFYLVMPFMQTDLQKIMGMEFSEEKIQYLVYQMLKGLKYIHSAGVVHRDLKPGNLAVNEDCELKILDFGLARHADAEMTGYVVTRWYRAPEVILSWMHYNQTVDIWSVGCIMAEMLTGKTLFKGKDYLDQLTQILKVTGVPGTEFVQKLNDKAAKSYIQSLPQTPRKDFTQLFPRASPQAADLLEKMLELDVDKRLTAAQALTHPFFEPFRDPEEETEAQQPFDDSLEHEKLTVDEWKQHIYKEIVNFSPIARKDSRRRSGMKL
Summary of the method: as §2

PKBγ(h) = PKBγ(h) (Homo sapiens, UniProt Q9Y243); assay type: biochemical
PKBγ(h), sequence (Q9Y243 whole entry): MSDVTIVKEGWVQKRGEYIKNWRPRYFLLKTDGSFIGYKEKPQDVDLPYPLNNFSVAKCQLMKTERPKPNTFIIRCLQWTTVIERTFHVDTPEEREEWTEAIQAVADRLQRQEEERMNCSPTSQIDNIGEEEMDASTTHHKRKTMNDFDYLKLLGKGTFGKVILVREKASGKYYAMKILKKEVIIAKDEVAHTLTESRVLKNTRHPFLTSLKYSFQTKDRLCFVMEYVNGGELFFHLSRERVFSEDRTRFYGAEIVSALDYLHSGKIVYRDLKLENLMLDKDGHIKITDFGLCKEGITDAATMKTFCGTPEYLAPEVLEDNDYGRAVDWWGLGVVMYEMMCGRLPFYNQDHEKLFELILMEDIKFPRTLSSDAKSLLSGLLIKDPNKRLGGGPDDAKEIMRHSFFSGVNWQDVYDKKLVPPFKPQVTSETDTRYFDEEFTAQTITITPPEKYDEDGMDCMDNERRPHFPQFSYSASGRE
Summary of the method: as §2

Fms(h) = Fms(h) (Homo sapiens, UniProt P07333); assay type: biochemical
Fms(h), sequence (P07333 20-972): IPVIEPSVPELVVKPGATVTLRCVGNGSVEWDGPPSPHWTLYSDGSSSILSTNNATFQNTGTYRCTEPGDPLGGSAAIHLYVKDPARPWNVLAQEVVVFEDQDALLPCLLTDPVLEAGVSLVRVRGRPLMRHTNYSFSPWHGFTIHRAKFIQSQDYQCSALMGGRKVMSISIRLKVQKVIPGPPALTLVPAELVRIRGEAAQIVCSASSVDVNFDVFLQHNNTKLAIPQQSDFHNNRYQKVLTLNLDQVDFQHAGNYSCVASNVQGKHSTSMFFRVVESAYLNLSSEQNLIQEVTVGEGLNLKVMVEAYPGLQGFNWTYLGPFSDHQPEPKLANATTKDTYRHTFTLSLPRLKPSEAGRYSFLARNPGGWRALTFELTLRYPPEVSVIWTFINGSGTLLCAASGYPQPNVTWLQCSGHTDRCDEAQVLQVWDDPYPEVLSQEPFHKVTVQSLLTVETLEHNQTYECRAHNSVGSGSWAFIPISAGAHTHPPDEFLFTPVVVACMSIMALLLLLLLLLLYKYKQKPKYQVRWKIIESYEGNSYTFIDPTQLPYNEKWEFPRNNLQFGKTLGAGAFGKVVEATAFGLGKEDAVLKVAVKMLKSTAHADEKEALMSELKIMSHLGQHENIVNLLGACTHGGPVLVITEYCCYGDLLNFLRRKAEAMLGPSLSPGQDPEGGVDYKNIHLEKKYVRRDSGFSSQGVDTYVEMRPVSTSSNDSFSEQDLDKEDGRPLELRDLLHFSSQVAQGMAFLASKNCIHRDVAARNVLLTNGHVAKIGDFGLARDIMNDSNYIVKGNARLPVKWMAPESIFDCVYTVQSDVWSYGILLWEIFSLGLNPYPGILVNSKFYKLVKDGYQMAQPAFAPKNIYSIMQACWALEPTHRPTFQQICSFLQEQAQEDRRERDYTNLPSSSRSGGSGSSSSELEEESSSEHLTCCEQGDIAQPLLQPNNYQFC
Summary of the method: as §2

MST2(h) = target: T2, MST2(h) (Homo sapiens, UniProt Q13188); assay type: biochemical
T2 sequence (Q13188 1-491): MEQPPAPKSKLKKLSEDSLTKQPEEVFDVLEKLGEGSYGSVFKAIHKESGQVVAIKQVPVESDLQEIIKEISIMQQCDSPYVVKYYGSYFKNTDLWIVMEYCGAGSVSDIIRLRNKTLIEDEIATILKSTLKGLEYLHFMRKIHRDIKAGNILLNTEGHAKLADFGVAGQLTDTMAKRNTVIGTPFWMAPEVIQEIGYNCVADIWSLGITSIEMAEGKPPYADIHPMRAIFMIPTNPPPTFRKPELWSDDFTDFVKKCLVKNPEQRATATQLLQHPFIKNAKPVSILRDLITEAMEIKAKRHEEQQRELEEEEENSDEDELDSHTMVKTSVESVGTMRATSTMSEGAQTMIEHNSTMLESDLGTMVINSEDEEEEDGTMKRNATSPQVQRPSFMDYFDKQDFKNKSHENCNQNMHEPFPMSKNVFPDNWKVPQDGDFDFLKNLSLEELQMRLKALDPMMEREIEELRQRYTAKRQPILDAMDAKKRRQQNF
Summary of the method: as §2

Activity at Protein Kinase Assays (% of control), CaMKII(r) (CaMKII(r))	Activity at Protein Kinase Assays (% of control), AMPK(r) (AMPK(r))	Activity at Protein Kinase Assays (% of control), CK1(y) (CK1(y))	Activity at Protein Kinase Assays (% of control), ALK(h) (ALK(h))	Activity at Protein Kinase Assays (% of control), SAPK4(h) (SAPK4(h))	Activity at Protein Kinase Assays (% of control), PKBγ(h) (PKBγ(h))	Activity at Protein Kinase Assays (% of control), Fms(h) (Fms(h))	Activity at Protein Kinase Assays (% of control), MST2(h) (MST2(h))	SMILES
92 % of control	101 % of control	91 % of control	103 % of control	101 % of control	93 % of control	94 % of control	103 % of control	CN(C)c1nc2ccc1CCCCn1cc(c3ccccc31)C1=C(C(=O)NC1=O)c1cn(c3ccccc13)CCC2 [Cpd 1, 31-(dimethylamino)-5,15,25,32-tetraazaheptacyclo[28.2.2.1^5,12.1^18,25.0^6,11.0^13,17.0^19,24]hexatriaconta-1(32),6,8,10,12(36),13(17),18(35),19,21,23,30,33-dodecaene-14,16-dione]
107 % of control	101 % of control	98 % of control	55 % of control	104 % of control	106 % of control	101 % of control	84 % of control	CN(C)c1cc2cc(n1)CCCn1cc(c3ccccc31)C1=C(C(=O)NC1=O)c1cn(c3ccccc13)CCC2 [Cpd 2, 20-(dimethylamino)-4,14,19,26-tetraazaheptacyclo[24.6.1.1^7,14.1^18,22.0^2,6.0^8,13.0^27,32]pentatriaconta-1(33),2(6),7(35),8,10,12,18(34),19,21,27,29,31-dodecaene-3,5-dione]
109 % of control	105 % of control	99 % of control	58 % of control	102 % of control	103 % of control	99 % of control	100 % of control	O=C1NC(=O)C2=C1c1cn(c3ccccc13)CCCc1cc(nc(N3CCCC3)c1)CCCn1cc2c2ccccc21 [Cpd 6, 20-pyrrolidin-1-yl-4,14,19,26-tetraazaheptacyclo[24.6.1.1^7,14.1^18,22.0^2,6.0^8,13.0^27,32]pentatriaconta-1(33),2(6),7(35),8,10,12,18(34),19,21,27,29,31-dodecaene-3,5-dione]
98 % of control	99 % of control	98 % of control	74 % of control	102 % of control	105 % of control	106 % of control	86 % of control	O=C1NC(=O)C2=C1c1cn(c3ccccc13)CCCc1ccc(c(N3CCCC3)n1)CCCn1cc2c2ccccc21 [Cpd 7, 31-pyrrolidin-1-yl-5,15,25,30-tetraazaheptacyclo[27.2.2.1^5,12.1^18,25.0^6,11.0^13,17.0^19,24]pentatriaconta-1(31),6,8,10,12(35),13(17),18(34),19,21,23,29,32-dodecaene-14,16-dione]
